Reference: paper PMC10780011 (2023)

Tests used:
[1] = system: d(5′-CGCGAATTCGCG-3′)2 (DNA, duplex) CGCGAATTCGCG; experiment: ethidium bromide displacement, fluorescence quenching, double-log plot; conditions: 100 mM phosphate; pH 7.0, 298 K; apparent; ethidium bromide displaced; 20 μM DNA
[2] = system: d(5′-CGCGAATTCGCG-3′)2 (DNA, duplex) CGCGAATTCGCG; experiment: 1H NMR titration, NOESY; conditions: 100 mM phosphate, pH 7.0, 298 K, H2O:D2O 9:1

Row | SMILES | Kb [1] | binding ([2]; minor and major groove, non-specific) | binding ([2]; 10 mM NaCl, partial intercalation T7/T8 and groove, precipitates without NaCl)
1 | [Ru+2].[Ru+2].[Ru+2].c1cc[cH-]c1.c1cc[cH-]c1.c1cc[cH-]c1.c1ccc(-c2ccc(-c3ccc(-c4ccccc4)cc3)cc2)cc1 | 2.803 ± 0.121 × 10^3 M^−1 | – | –
2 | [Ru+2].[Ru+2].c1cc[cH-]c1.c1cc[cH-]c1.c1ccc(-c2ccc(-c3ccc(-c4ccccc4)cc3)cc2)cc1 | 5.933 ± 0.001 × 10^3 M^−1 | yes | –
3 | [Ru+2].c1cc[cH-]c1.c1ccc(-c2ccc(-c3ccc(-c4ccccc4)cc3)cc2)cc1 | 8.111 ± 0.001 × 10^3 M^−1 | – | yes
4 | [Ru+2].c1cc[cH-]c1.c1ccc(-c2ccccc2)cc1 | 2.330 ± 0.001 × 10^3 M^−1 | – | –

More lines, main results first:

Row | Kb [1] | SMILES | binding ([2]; minor and major groove, non-specific) | binding ([2]; 10 mM NaCl, partial intercalation T7/T8 and groove, precipitates without NaCl)
5 | 0.815 ± 0.001 × 10^3 M^−1 | [Ru+2].[Ru+2].c1cc[cH-]c1.c1cc[cH-]c1.c1ccc(-c2ccc(-c3ccccc3)cc2)cc1 | – | –
6 | 3.532 ± 0.001 × 10^3 M^−1 | [Ru+2].c1cc[cH-]c1.c1ccc(-c2ccc(-c3ccccc3)cc2)cc1 | – | –
